Source: BindingDB's records for doi:10.1021/jm000508c (Ontogen, 2001)

Experiments:
[1] = Inhibitory activity against P-selectin using cell-cell assay
[2] = Inhibitory activity against Selectin E using cell-cell assay

SMILES: CCCCCCCCCCCCNC(=O)C=Cc1ccc(-c2[nH]c(-c3ccc(-c4cc(C(=O)O)on4)cc3)nc2-c2ccc(C=CC(=O)O)cc2)cc1 [3-(4-{4-[4-(2-Carboxy-vinyl)-phenyl]-5-[4-(2-dodecylcarbamoyl-vinyl)-phenyl]-1H-imidazol-2-yl}-phenyl)-isoxazole-5-carboxylic acid]
- IC50 [1]: 500 µM

SMILES: CCCCCCCCCCCCCCCCNC(=O)C=Cc1ccc(-c2[nH]c(-c3ccc(C4=NOC(C(=O)O)C4)cc3)nc2-c2ccc(C=CC(=O)O)cc2)cc1 (stereo not drawn) [3-(4-{4-[4-(2-Carboxy-vinyl)-phenyl]-5-[4-(2-hexadecylcarbamoyl-vinyl)-phenyl]-1H-imidazol-2-yl}-phenyl)-4,5-dihydro-isoxazole-5-carboxylic acid]
- IC50 [1]: 14 µM
- IC50 [2]: 30 µM

SMILES: CCCCCCCCCCCCCCCCNC(=O)C=Cc1ccc(-c2[nH]c(-c3ccc(-c4cc(C(=O)O)on4)cc3)nc2-c2ccc(C=CC(=O)O)cc2)cc1 [3-(4-{4-[4-(2-Carboxy-vinyl)-phenyl]-5-[4-(2-hexadecylcarbamoyl-vinyl)-phenyl]-1H-imidazol-2-yl}-phenyl)-isoxazole-5-carboxylic acid]
- IC50 [1]: 8 µM
- IC50 [2]: 20 µM

SMILES: CCCCCCCCCCCCCCCCNC(=O)C=Cc1ccc(-c2[nH]cnc2-c2ccc(C=CC(=O)O)cc2)cc1 [3-(4-{5-[4-(2-Hexadecylcarbamoyl-vinyl)-phenyl]-1H-imidazol-4-yl}-phenyl)-acrylic acid]
- IC50 [1]: 98 µM
- IC50 [2]: > 100 µM

SMILES: O=C(O)C=Cc1ccc(-c2nc(-c3ccc(C4=NOC(C(=O)O)C4)cc3)c(-c3ccc(C=CC(=O)NCCCc4ccccc4)cc3)[nH]2)cc1 (stereo not drawn) [3-[4-(2-[4-(2-Carboxy-vinyl)-phenyl]-5-{4-[2-(3-phenyl-propylcarbamoyl)-vinyl]-phenyl}-1H-imidazol-4-yl)-phenyl]-4,5-dihydro-isoxazole-5-carboxylic acid]
- IC50 [1]: 123 µM
